# Assay results from PubChem BioAssay (NCI).
#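 The compound was tested at five concentrations on cells cultured in 96-well plates, with a 48-hour exposure period. Here, GI50 denotes the concentration required for 50% inhibition of growth. TGI marks complete inhibition of growth.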
# Key:
# Assay in all cases: NCI anticancer screen, dose series, 48 h
# [1] = tested on: 786-0 renal
# [2] = tested on: A498 renal
# [3] = tested on: A549 NSCLC
# [4] = tested on: ACHN renal
# [5] = tested on: BT-549 breast
# [6] = tested on: CAKI-1 renal
# [7] = tested on: CCRF-CEM leukemia
# [8] = tested on: COLO 205 colon
# [9] = tested on: DU-145 prostate
# [10] = tested on: EKVX NSCLC
# [11] = tested on: HCC-2998 colon
# [12] = tested on: HCT-116 colon
# [13] = tested on: HCT-15 colon
# [14] = tested on: HL-60(TB) leukemia
# [15] = tested on: HOP-62 NSCLC
# [16] = tested on: HOP-92 NSCLC
# [17] = tested on: HS 578T breast
# [18] = tested on: IGROV1 ovarian
# [19] = tested on: K-562 leukemia
# [20] = tested on: KM12 colon
# [21] = tested on: LOX IMVI melanoma
# [22] = tested on: M14 melanoma
# [23] = tested on: MALME-3M melanoma
# [24] = tested on: MCF7 breast
# [25] = tested on: MDA-MB-231 breast
# [26] = tested on: MDA-MB-435
# [27] = tested on: MOLT-4 leukemia
# [28] = tested on: NCI-H226 lung
# [29] = tested on: NCI-H23 lung
# [30] = tested on: NCI-H460 lung
# [31] = tested on: NCI-H522 lung
# [32] = tested on: NCI/ADR-RES ovarian
# [33] = tested on: OVCAR-3 ovarian
# [34] = tested on: OVCAR-4 ovarian
# [35] = tested on: OVCAR-5 ovarian
# [36] = tested on: OVCAR-8 ovarian
# [37] = tested on: PC-3 prostate
# [38] = tested on: RPMI-8226 leukemia
# [39] = tested on: RXF 393 renal
# [40] = tested on: SF-268 CNS
# [41] = tested on: SF-295 CNS
# [42] = tested on: SF-539 CNS
# [43] = tested on: SK-MEL-2 melanoma
# [44] = tested on: SK-MEL-28 melanoma
# [45] = tested on: SK-MEL-5 melanoma
# [46] = tested on: SK-OV-3 ovarian
# [47] = tested on: SN12C renal
# [48] = tested on: SNB-19 CNS
# [49] = tested on: SNB-75 CNS
# [50] = tested on: SR leukemia
# [51] = tested on: SW-620 colon
# [52] = tested on: T-47D breast
# [53] = tested on: TK-10 renal
# [54] = tested on: UACC-257 melanoma
# [55] = tested on: UACC-62 melanoma
# [56] = tested on: UO-31 renal
# [57] = tested on: HT29 colon
# [58] = tested on: U251 CNS
smiles,measurement,setting,value
Cc1cc(OCc2nn(CN3CCN(C)CC3)c(=S)n2/N=C/c2ccc(F)cc2)ccc1Cl,GI50,[1],18.7 µM
same,TGI,[1],34.1 µM
same,GI50,[2],16.8 µM
same,TGI,[2],31.3 µM
same,GI50,[3],16.9 µM
same,TGI,[3],31.3 µM
same,GI50,[4],20.1 µM
same,TGI,[4],34.3 µM
same,GI50,[5],17.6 µM
same,TGI,[5],32.7 µM
same,GI50,[6],20.1 µM
same,TGI,[6],40.9 µM
same,GI50,[7],19.8 µM
same,TGI,[7],43.4 µM
same,GI50,[8],12.6 µM
same,TGI,[8],25.7 µM
same,GI50,[9],20.7 µM
same,TGI,[9],40.7 µM
same,GI50,[10],20.4 µM
same,TGI,[10],43 µM
same,GI50,[11],18.8 µM
same,TGI,[11],33.1 µM
same,GI50,[12],17.8 µM
same,TGI,[12],32.3 µM
same,GI50,[13],15.2 µM
same,TGI,[13],29.3 µM
same,GI50,[14],17.4 µM
same,TGI,[14],40 µM
same,GI50,[15],18.7 µM
same,TGI,[15],34.4 µM
same,GI50,[16],17.8 µM
same,TGI,[16],37.6 µM
same,GI50,[17],33.1 µM
same,TGI,[17],88.7 µM
same,GI50,[18],16.2 µM
same,TGI,[18],30.5 µM
same,GI50,[19],19.2 µM
same,TGI,[19],41.7 µM
same,GI50,[20],17.9 µM
same,TGI,[20],37.5 µM
same,GI50,[21],18.3 µM
same,TGI,[21],32.7 µM
same,GI50,[22],17.9 µM
same,TGI,[22],33.1 µM
same,GI50,[23],22.8 µM
same,TGI,[23],43.4 µM
same,GI50,[24],18.4 µM
same,TGI,[24],34.4 µM
same,GI50,[25],18.5 µM
same,TGI,[25],36 µM
same,GI50,[26],18 µM
same,TGI,[26],36.2 µM
same,GI50,[27],14.7 µM
same,TGI,[27],34.9 µM
same,GI50,[28],17.7 µM
same,TGI,[28],33.6 µM
same,GI50,[29],16.9 µM
same,TGI,[29],31.1 µM
same,GI50,[30],17 µM
same,TGI,[30],31.8 µM
same,GI50,[31],15.7 µM
same,TGI,[31],30.8 µM
same,GI50,[32],18.8 µM
same,TGI,[32],36.1 µM
same,GI50,[33],17.4 µM
same,TGI,[33],34.3 µM
same,GI50,[34],6.86 µM
same,TGI,[34],22 µM
same,GI50,[35],25 µM
same,TGI,[35],49.5 µM
same,GI50,[36],18 µM
same,TGI,[36],32.2 µM
same,GI50,[37],16.2 µM
same,TGI,[37],31.6 µM
same,GI50,[38],16.8 µM
same,TGI,[38],40.7 µM
same,GI50,[39],17.5 µM
same,TGI,[39],31.9 µM
same,GI50,[40],19.6 µM
same,TGI,[40],38 µM
same,GI50,[41],17.9 µM
same,TGI,[41],36.6 µM
same,GI50,[42],19.3 µM
same,TGI,[42],40.1 µM
same,GI50,[43],18.5 µM
same,TGI,[43],37.6 µM
same,GI50,[44],15.2 µM
same,TGI,[44],31.5 µM
same,GI50,[45],16.7 µM
same,TGI,[45],30.6 µM
same,GI50,[46],19.7 µM
same,TGI,[46],44.4 µM
same,GI50,[47],16.9 µM
same,TGI,[47],31 µM
same,GI50,[48],17.6 µM
same,TGI,[48],33.8 µM
same,GI50,[49],13.4 µM
same,TGI,[49],32.2 µM
same,GI50,[50],13.3 µM
same,TGI,[50],29.7 µM
same,GI50,[51],18.7 µM
same,TGI,[51],35.7 µM
same,GI50,[52],17 µM
same,TGI,[52],39.7 µM
same,GI50,[53],14.6 µM
same,TGI,[53],33.7 µM
same,GI50,[54],19.2 µM
same,TGI,[54],36.7 µM
same,GI50,[55],17.4 µM
same,TGI,[55],31.6 µM
same,GI50,[56],17.6 µM
same,TGI,[56],32.9 µM
CCOC(=O)c1cc2c(n1Cc1ccccc1OC)-c1oncc1CCC2,GI50,[1],> 100 µM
same,TGI,[1],> 100 µM
same,GI50,[2],3.46 µM
same,TGI,[2],> 100 µM
same,GI50,[4],16.6 µM
same,TGI,[4],> 100 µM
same,GI50,[5],7.73 µM
same,TGI,[5],> 100 µM
same,GI50,[6],3.51 µM
same,TGI,[6],> 100 µM
same,GI50,[7],2.87 µM
same,TGI,[7],> 100 µM
same,GI50,[8],0.878 µM
same,TGI,[8],3.97 µM
same,GI50,[9],5.27 µM
same,TGI,[9],> 100 µM
same,GI50,[11],> 100 µM
same,TGI,[11],> 100 µM
same,GI50,[12],3.79 µM
same,TGI,[12],> 100 µM
same,GI50,[13],2.24 µM
same,TGI,[13],> 100 µM
same,GI50,[14],3.04 µM
same,TGI,[14],> 100 µM
same,GI50,[15],1.89 µM
same,TGI,[15],9.9 µM
same,GI50,[16],0.309 µM
same,TGI,[16],7.43 µM
same,GI50,[17],3.38 µM
same,TGI,[17],> 100 µM
same,GI50,[57],0.912 µM
same,TGI,[57],> 100 µM
same,GI50,[18],1.99 µM
same,TGI,[18],> 100 µM
same,GI50,[19],1.59 µM
same,TGI,[19],> 100 µM
same,GI50,[20],2.1 µM
same,TGI,[20],> 100 µM
same,GI50,[21],7.64 µM
same,TGI,[21],> 100 µM
same,GI50,[22],3.67 µM
same,TGI,[22],> 100 µM
same,GI50,[23],3.08 µM
same,TGI,[23],> 100 µM
same,GI50,[24],0.716 µM
same,TGI,[24],> 100 µM
same,GI50,[25],9.12 µM
same,TGI,[25],> 100 µM
same,GI50,[26],0.351 µM
same,TGI,[26],> 100 µM
same,GI50,[27],5.68 µM
same,TGI,[27],> 100 µM
same,GI50,[28],> 100 µM
same,TGI,[28],> 100 µM
same,GI50,[29],8.52 µM
same,TGI,[29],> 100 µM
same,GI50,[30],3.89 µM
same,TGI,[30],> 100 µM
same,GI50,[31],0.351 µM
same,TGI,[31],2.88 µM
same,GI50,[32],1.36 µM
same,TGI,[32],> 100 µM
same,GI50,[33],0.874 µM
same,TGI,[33],6.49 µM
same,GI50,[34],9.35 µM
same,TGI,[34],> 100 µM
same,GI50,[35],> 100 µM
same,TGI,[35],> 100 µM
same,GI50,[36],3.85 µM
same,TGI,[36],> 100 µM
same,GI50,[37],2.48 µM
same,TGI,[37],> 100 µM
same,GI50,[38],4.11 µM
same,TGI,[38],> 100 µM
same,GI50,[40],46.2 µM
same,TGI,[40],> 100 µM
same,GI50,[41],1.38 µM
same,TGI,[41],6.1 µM
same,GI50,[42],2.48 µM
same,TGI,[42],8.57 µM
same,GI50,[44],> 100 µM
same,TGI,[44],> 100 µM
same,GI50,[45],2.61 µM
same,TGI,[45],> 100 µM
same,GI50,[46],2.7 µM
same,TGI,[46],19.7 µM
same,GI50,[47],> 100 µM
same,TGI,[47],> 100 µM
same,GI50,[48],64.7 µM
same,TGI,[48],> 100 µM
same,GI50,[50],0.438 µM
same,TGI,[50],> 100 µM
same,GI50,[51],2.02 µM
same,TGI,[51],> 100 µM
same,GI50,[52],2.46 µM
same,TGI,[52],> 100 µM
same,GI50,[53],67.8 µM
same,TGI,[53],> 100 µM
same,GI50,[58],3.78 µM
same,TGI,[58],> 100 µM
same,GI50,[55],3.37 µM
same,TGI,[55],> 100 µM
same,GI50,[56],6.53 µM
same,TGI,[56],> 100 µM
